Experimental data reported in patent publication US11952378B1, “Pyrrolo[2,3-c]isoquinoline-1,2-dione compounds as CK2 inhibitors” (KING FAISAL UNIVERSITY, priority 2023, dated 2024).

What was measured:
PC3 (prostate) = test: In vitro cytotoxic activity assay (MTT), PC3; format: cell-based; conditions: Homo sapiens, Prostate cell; PC3 (prostate) cells, exposed for 96 hours; read-out: IC50, concentration eliciting 50% inhibition of cell proliferation
Procedure: (§1) Compounds 1-16 were screened for their in vitro cytotoxic behavior using a 3-(4,5-dimethyl-thiazol-2-yl)-2,5-diphenyltetrazolium bromide (MTT) assay against selected cancer human cell lines consisting of PC3 (prostate), HCT116 (colon), A375 (melanoma), H1299 (lung), MIAPaCa-2 (pancreas), HL60 (leukemia), MCF7 (breast), MDA-MB-231 (breast) (T. Mosmann, J. Immunol. Meth., 1983, 65, 55-63). The cells were cultured at 37° C. in RMPI1640 medium supplemented with 10% fetal bovine serum, 50 IU/mL penicillin, and 50 μg/mL streptomycin in a 5% CO2 incubator. All cells were sub-cultured 3 times/week by trypsinisation. Viable cells were seeded and allowed to adhere for 12 h before a test drug was added in 96-well plates at an initial density of 1.0×10^5 cells/mL. Tumor cell lines were separately exposed to various concentrations of the tested compounds followed by incubation at a temperature of 37° C. during 96 h inside a medium of fresh RMPI 1640. Cells were subsequently incubated at 37° C. using MTT at 0.5 mg/mL during 4 hours. After removal of supernatant, formazan crystals were dissolved in isopropanol and the optical density was measured at 570 nm. CX-4945 was used as a positive control.

HCT116 (colon) = test: In vitro cytotoxic activity assay (MTT), HCT116; format: cell-based; conditions: Homo sapiens, HCT-116; HCT116 (colon) cells, exposed for 96 hours; read-out: IC50, concentration eliciting 50% inhibition of cell proliferation
Procedure: as §1

A375 (melanoma) = test: In vitro cytotoxic activity assay (MTT), A375; format: cell-based; conditions: Homo sapiens, A-375; A375 (melanoma) cells, exposed for 96 hours; read-out: IC50, concentration eliciting 50% inhibition of cell proliferation
Procedure: as §1

H1299 (lung) = test: In vitro cytotoxic activity assay (MTT), H1299; format: cell-based; conditions: Homo sapiens, NCI-H1299; H1299 (lung) cells, exposed for 96 hours; read-out: IC50, concentration eliciting 50% inhibition of cell proliferation
Procedure: as §1

MIAPaCa-2 (pancreas) = test: In vitro cytotoxic activity assay (MTT), MIAPaCa-2; format: cell-based; conditions: Homo sapiens, MIA PaCa-2; MIAPaCa-2 (pancreas) cells, exposed for 96 hours; read-out: IC50, concentration eliciting 50% inhibition of cell proliferation
Procedure: as §1

HL60 (leukemia) = test: In vitro cytotoxic activity assay (MTT), HL60; format: cell-based; conditions: Homo sapiens, HL-60; HL60 (leukemia) cells, exposed for 96 hours; read-out: IC50, concentration eliciting 50% inhibition of cell proliferation
Procedure: as §1

MCF7 (breast) = test: In vitro cytotoxic activity assay (MTT), MCF7; format: cell-based; conditions: Homo sapiens; MCF7 (breast) cells, exposed for 96 hours; read-out: IC50, concentration eliciting 50% inhibition of cell proliferation
Procedure: as §1

MDA-MB-231 (breast) = test: In vitro cytotoxic activity assay (MTT), MDA-MB-231; format: cell-based; conditions: Homo sapiens; MDA-MB-231 (breast) cells, exposed for 96 hours; read-out: IC50, concentration eliciting 50% inhibition of cell proliferation
Procedure: as §1

[1] = molecular target: T1, recombinant human CK2 (RRββ-holoenzyme) (Homo sapiens, UniProt P68400); test: CK2 Kinase Assay ([γ-33P]ATP, substrate peptide RRRDDDSDDD); format: biochemical; conditions: final ATP concentration 15 μM, 10 minutes at 30° C.; read-out: protein kinase CK2 IC50
T1 construct: purchased Millipore
Procedure: CK2 Kinase Assay was conducted using the previously described protocol (Pierre F. et al; J. Med. Chem. 2011, 54, 635-654). The tested compounds in aqueous solution were added at a volume of 10 μL to a reaction mixture comprising 10 μL of assay dilution buffer (ADB; 20 mM MOPS, pH 7.2, 25 mM β-glycerol phosphate, 5 mM EGTA, 1 mM sodium orthovanadate, and 1 mM dithiothreitol), 10 μL of substrate peptide (RRRDDDSDDD, dissolved in ADB at a concentration of 1 mM), 10 μL of recombinant human CK2 (RRββ-holoenzyme, 25 ng dissolved in ADB; Millipore). Reactions were initiated by the addition of 10 μL of ATP solution (90% 75 mMMgCl2, 75 μM ATP (final ATP concentration: 15 μM) dissolved in ADB; 10% [γ-33P] ATP (stock 1 mCi/100 μL; 3000 Ci/mmol (Perkin-Elmer) and maintained for 10 minutes at 30° C. The reactions were quenched with 100 μL of 0.75% phosphoric acid and then transferred to and filtered through a phosphor cellulose filter plate (Millipore). After washing each well five times with 0.75% phosphoric acid, the plate was dried under vacuum for 5 min and, following the addition of 15 μL of scintillation fluid to each well, the residual radioactivity was measured using a Wallac luminescence counter. The IC50 values were derived from eight concentrations of test inhibitors.

T1 sequence (P68400 whole entry): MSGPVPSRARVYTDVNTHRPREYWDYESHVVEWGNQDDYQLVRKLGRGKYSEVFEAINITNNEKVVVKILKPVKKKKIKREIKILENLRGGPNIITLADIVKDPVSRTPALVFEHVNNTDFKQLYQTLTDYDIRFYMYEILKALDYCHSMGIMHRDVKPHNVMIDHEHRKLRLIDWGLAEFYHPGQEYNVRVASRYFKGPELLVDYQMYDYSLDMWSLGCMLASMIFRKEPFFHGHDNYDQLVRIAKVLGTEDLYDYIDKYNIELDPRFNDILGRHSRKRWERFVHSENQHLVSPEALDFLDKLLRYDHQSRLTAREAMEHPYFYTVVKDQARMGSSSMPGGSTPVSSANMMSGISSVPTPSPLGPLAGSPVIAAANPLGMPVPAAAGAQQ
T1 sequence (P67870 whole entry partner): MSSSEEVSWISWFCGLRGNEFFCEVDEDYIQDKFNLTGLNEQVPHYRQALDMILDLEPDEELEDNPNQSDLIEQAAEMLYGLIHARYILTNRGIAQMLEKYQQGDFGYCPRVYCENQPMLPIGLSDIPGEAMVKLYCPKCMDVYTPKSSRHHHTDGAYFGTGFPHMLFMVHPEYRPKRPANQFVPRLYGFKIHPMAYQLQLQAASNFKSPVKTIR

In the case of `O=C1Nc2nc(Nc3cccc(Cl)c3)c3cc(C(=O)O)ccc3c2C1=O` [Compound 1, 5-((3-chlorophenyl)amino)-1,2-dioxo-2,3-dihydro-1H-pyrrolo[2,3-c]isoquinoline-7-carboxylic Acid], the IC50 (PC3 (prostate)) is reported as 1200 nM, the IC50 (HCT116 (colon)) is reported as 1300 nM and the IC50 (A375 (melanoma)) is reported as 2700 nM. It also gave an IC50 (H1299 (lung)) of 1900 nM, an IC50 (MIAPaCa-2 (pancreas)) of 1300 nM and an IC50 (HL60 (leukemia)) of 3400 nM. The IC50 (MCF7 (breast)) was 5500 nM, the IC50 (MDA-MB-231 (breast)) was 4100 nM and the IC50 [1] was 55 nM.
